Assay [1] deals with human TYK2 (JH2domain-pseudokinase) (Homo sapiens (Human), UniProt P29597). The experiment in a line: TYK2 JH2 Domain Binding Assay (KINOMEscan). The method, boiled down: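 Displacement of a DNA-tagged TYK2 JH2 fusion (human, aa G556–D888, HEK293 extract, <0.1 nM) from ligand-coated beads over 1 h at RT; binding buffer PBS/0.05% Tween 20/10 mM DTT/0.1% BSA.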
In assay [2] the target is Tyk2/JAK2 (heterodimeric complex) (Homo sapiens (Human), UniProt P29597). The experiment in a line: IL-12 Induced pSTAT4 in Human PBMC. It counts as cell-based. The note with it: 1.7 ng/mL IL-12. The source says: The IL-12 Induced pSTAT4 assay evaluates the inhibition of IL-12 induced STAT4 phophorylation mediated by Tyk2/JAK2 (heterodimeric complex).
Assay [3] has as its target JAK2/JAK2 homdimeric complex (Homo sapiens (Human), UniProt O60674). The experiment in a line: GM-CSF Induced pSTAT5 in Human PBMC. It counts as cell-based. The note with it: GM-CSF 5 ng/mL for 20 minutes, pSTAT5 by MSD, read-out: PBMC_GMCSF_pSTAT5 IC50.
The next assay has as its target Tyk2 kinase domain (DH1) (Homo sapiens (Human), UniProt P29597). The assay can be described thus: Tyk2 Radioactive Kinase Assay. It counts as biochemical. As to conditions: 10 μM compound; 10 μM ATP; read-out: Tyk2 JH1% Inhibition @ 10 μM. The method, boiled down:
(§1)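 Compounds were tested at a single concentration of 10 μM in a radiometric kinase format against each isolated kinase domain. Activity is reported as percent inhibition at that concentration.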

A further assay addresses JAK2 kinase domain (JH1) (Homo sapiens (Human), UniProt O60674). The experiment in a line: JAK2 Radioactive Kinase Assay. It counts as biochemical. As to conditions: 10 μM compound; 10 μM ATP; read-out: JAK2 JH1% Inhibition @ 10 μM. The gist of the method:
as §1

Chain of human TYK2 (JH2domain-pseudokinase) (P29597 556-888): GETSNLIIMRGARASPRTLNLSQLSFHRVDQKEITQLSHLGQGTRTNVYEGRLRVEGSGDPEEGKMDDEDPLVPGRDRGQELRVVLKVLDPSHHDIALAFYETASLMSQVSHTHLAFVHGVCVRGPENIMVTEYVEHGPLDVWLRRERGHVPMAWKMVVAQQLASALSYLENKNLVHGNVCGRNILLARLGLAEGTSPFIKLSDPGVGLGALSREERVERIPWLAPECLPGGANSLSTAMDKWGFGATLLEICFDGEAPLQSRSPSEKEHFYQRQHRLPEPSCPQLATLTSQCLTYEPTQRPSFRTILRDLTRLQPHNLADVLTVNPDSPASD
Chain of Tyk2/JAK2 (heterodimeric complex) (P29597 whole entry, other chains not shown): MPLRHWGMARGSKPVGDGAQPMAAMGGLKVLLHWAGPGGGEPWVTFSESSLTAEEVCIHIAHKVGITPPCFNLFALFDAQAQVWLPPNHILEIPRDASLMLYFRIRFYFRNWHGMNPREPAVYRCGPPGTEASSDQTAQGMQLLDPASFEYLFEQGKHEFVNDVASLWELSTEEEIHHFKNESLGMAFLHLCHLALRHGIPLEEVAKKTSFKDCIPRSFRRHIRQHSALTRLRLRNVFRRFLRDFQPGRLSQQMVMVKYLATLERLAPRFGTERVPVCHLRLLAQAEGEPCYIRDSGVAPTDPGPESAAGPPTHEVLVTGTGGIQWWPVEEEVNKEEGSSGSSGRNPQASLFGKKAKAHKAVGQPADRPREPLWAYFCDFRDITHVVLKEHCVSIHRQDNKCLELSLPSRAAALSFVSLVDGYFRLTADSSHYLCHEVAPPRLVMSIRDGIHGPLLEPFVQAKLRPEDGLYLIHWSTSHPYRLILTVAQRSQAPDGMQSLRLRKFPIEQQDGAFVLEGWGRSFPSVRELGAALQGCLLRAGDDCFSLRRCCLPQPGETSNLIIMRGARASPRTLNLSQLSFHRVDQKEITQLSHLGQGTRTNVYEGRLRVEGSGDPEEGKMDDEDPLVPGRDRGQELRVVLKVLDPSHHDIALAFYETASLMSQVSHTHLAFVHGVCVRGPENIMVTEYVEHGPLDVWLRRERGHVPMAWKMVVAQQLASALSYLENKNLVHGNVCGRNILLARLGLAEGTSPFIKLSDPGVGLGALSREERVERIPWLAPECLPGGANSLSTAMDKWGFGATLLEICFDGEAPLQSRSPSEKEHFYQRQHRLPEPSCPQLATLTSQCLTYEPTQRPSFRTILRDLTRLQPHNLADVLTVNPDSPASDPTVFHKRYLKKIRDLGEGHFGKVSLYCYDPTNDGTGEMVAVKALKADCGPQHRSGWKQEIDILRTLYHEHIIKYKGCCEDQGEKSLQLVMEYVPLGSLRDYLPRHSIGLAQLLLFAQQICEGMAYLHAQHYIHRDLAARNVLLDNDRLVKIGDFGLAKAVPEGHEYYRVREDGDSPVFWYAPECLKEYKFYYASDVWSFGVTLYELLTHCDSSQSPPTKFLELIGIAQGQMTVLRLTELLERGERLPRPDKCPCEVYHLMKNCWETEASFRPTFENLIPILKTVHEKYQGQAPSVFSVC
Chain of Tyk2 kinase domain (DH1) (P29597 897-1176): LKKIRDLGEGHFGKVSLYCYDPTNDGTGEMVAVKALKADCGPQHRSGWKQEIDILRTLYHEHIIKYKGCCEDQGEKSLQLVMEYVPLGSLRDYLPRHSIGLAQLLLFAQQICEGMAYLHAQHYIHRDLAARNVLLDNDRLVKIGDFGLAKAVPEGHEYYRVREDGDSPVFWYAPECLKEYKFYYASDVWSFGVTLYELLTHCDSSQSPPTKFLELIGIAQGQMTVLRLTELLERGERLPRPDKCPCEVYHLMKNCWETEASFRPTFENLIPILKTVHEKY
Chain of JAK2 kinase domain (JH1) (O60674 849-1124): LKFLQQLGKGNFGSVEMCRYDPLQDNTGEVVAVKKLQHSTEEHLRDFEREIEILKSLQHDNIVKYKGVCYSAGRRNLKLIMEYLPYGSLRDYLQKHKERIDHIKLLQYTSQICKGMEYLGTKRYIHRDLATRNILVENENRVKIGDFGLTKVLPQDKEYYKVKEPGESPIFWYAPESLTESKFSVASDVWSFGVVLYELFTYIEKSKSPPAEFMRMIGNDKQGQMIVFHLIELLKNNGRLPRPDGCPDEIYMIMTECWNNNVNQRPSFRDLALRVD
Chain of JAK2/JAK2 homdimeric complex (O60674 whole entry, the tested form may be a part): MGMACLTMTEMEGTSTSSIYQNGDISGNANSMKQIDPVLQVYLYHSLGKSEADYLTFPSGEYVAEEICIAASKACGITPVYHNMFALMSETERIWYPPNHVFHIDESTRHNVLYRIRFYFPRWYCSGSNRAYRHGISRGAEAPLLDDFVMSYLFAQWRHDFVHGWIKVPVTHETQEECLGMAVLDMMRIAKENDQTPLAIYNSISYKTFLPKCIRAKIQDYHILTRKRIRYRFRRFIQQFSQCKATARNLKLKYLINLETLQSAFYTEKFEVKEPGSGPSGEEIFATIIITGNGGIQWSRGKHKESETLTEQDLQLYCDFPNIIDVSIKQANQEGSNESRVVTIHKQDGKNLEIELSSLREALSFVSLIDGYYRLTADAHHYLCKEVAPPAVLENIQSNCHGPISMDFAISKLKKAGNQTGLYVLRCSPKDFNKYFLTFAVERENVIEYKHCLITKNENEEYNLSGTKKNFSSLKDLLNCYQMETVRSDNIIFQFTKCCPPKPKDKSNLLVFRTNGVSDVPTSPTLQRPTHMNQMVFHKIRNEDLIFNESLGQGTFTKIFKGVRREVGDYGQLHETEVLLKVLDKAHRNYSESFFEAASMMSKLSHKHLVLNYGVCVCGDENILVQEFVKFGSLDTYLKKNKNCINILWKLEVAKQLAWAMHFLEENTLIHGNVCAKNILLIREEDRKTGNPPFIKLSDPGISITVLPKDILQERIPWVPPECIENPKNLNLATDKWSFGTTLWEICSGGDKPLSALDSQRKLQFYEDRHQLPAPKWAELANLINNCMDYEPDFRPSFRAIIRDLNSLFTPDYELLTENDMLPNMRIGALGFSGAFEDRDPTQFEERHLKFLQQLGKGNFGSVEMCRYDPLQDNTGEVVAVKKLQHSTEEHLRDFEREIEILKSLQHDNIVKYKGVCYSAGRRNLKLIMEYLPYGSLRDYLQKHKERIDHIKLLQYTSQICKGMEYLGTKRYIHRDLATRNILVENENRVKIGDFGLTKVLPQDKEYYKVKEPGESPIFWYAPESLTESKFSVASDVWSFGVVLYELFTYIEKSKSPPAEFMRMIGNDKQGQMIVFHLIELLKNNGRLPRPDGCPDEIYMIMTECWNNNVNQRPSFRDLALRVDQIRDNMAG
Chain of JAK2/JAK2 homdimeric complex (P32927 17-897 partner): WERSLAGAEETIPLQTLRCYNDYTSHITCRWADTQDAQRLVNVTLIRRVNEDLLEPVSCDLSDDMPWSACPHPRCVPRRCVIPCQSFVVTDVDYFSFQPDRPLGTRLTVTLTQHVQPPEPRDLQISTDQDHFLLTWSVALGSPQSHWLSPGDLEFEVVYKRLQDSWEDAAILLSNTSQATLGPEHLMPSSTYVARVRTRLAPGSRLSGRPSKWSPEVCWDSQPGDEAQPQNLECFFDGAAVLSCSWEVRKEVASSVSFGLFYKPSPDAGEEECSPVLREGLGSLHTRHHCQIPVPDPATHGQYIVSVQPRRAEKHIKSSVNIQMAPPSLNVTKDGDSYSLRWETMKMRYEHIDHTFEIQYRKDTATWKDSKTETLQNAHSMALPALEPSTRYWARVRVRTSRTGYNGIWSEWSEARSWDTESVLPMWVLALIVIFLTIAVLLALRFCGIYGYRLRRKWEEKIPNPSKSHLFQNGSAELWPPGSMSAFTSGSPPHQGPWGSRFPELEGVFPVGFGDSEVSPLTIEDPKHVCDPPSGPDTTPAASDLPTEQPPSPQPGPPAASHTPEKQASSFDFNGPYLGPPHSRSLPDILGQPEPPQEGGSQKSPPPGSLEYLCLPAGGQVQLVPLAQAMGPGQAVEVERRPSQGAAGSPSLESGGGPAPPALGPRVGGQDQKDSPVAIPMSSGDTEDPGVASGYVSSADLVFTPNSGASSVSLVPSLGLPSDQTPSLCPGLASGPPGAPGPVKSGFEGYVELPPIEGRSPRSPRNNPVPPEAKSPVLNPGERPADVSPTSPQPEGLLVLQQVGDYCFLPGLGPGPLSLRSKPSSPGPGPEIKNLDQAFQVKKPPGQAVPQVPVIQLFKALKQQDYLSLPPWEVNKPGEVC

A word on the Kd: it is the constant that tells how readily two partners part at equilibrium. High values mean weaker binding, low ones tighter binding. By IC50 is commonly meant the point on the concentration scale where inhibition reaches its midpoint. As to `CNc1cc(-c2cn(C(C)C)c3ncc(F)cc23)nc2c(C(=O)N[C@H]3CC[C@H]3O)cnn12` [I-1387], the Kd in assay [1] was in the range of 1 to 10 nM. Further, the IC50 in assay [2] is below 100 nM.
Take `CNc1cc(Nc2cccn(-c3cnn(C)c3F)c2=O)nc2c(C(=O)N[C@H]3CC[C@@H]3OC)cnn12` [I-1369]: the half-maximal inhibitory concentration (IC50) in assay [2] was below 100 nM.
On the same count and under the same terms, with `CNc1cc(Nc2cccn([C@H]3CCCC[C@H]3OC)c2=O)nc2c(C(=O)N[C@H]3CC[C@@H]3OC)cnn12` [I-1377] the figure was below 100 nM.
Take `CNc1cc(-c2cn([C@@H]3CCN(CCF)C3)c3ncccc23)nc2c(C(=O)N[C@@H]3C[C@@H]3F)cnn12` [I-1366]: the equilibrium dissociation constant (Kd) in assay [1] lay within 1 to 10 nM. In assay [2], this compound displayed a 50% inhibitory concentration (IC50) below 100 nM.
In the same order, the values of `CNc1cc(-c2cn(C3CCOCC3)c3ncccc23)nc2c(C(=O)N[C@@H]3CC[C@H]3OC)cnn12` [I-1328] are 0.2 to 1 nM and below 100 nM.
As to `CNc1cc(Nc2cccn(C3CC(F)(F)C3)c2=O)nc2c(C(=O)N[C@H]3CC[C@@H]3OC)cnn12` [I-1389], in assay [1], the Kd was in the range of 0.2 to 1 nM. In assay [2], this compound registered an IC50 below 100 nM.
Consider `CNc1cc(Nc2cccn([C@H]3CCC[C@H]3O)c2=O)nc2c(C(=O)N[C@H]3CC[C@@H]3OC)cnn12` [I-1373], for which, in assay [2], the IC50 is below 100 nM.
On to `CNC(=O)c1occc1Nc1cc(NC)n2ncc(C(=O)N[C@H]3CC[C@@H]3OC)c2n1` [I-1323], for which, in assay [1], the Kd fell in the range of 1 to 10 nM. This compound returned an IC50 in assay [2] below 100 nM.
`CNc1cc(Nc2cccn([C@H]3CCN(CCF)C3)c2=O)nc2c(C(=O)N[C@H]3CC[C@@H]3OC)cnn12` [I-1381] yielded a Kd in assay [1] of 0.2 to 1 nM. The compound further gave a 50% inhibitory concentration (IC50) in assay [2] below 100 nM.
As to `CNc1cc(Nc2cccn([C@H]3CCC[C@H](O)C3)c2=O)nc2c(C(=O)N[C@@H]3CC[C@H]3OC)cnn12` [I-1395], the Kd in assay [1] was 0.2 to 1 nM. The compound also returned an IC50 in assay [2] below 100 nM.
In the same order, the values of `CNc1cc(Nc2cccn([C@@H]3CCCN(CCF)C3)c2=O)nc2c(C(=O)N[C@H]3CC[C@@H]3OC)cnn12` [I-1382] are below 0.2 nM and below 100 nM.
Turning to `CNc1cc(Nc2cccn([C@@H]3CC[C@@H]3O)c2=O)nc2c(C(=O)N[C@H]3CC[C@@H]3OC)cnn12` [I-1411], the Kd in assay [1] lay in the range of 1 to 10 nM. For the same compound, the IC50 in assay [2] was below 100 nM.
As to `CNc1cc(-c2cn(CCCO)c3ncccc23)nc2c(C(=O)N[C@H]3CC[C@@H]3OC)cnn12` [I-1388], in assay [1], the Kd fell in the range of 0.2 to 1 nM. The same compound returned an IC50 in assay [2] below 100 nM.
In the same order, the values of `CNc1cc(Nc2cccn(-c3ccccn3)c2=O)nc2c(C(=O)N[C@@H]3C[C@H]3OC)cnn12` [I-1286] are below 0.2 nM and below 100 nM.
The compound `CNc1cc(Nc2cccn([C@@H]3CCN(CCF)C3)c2=O)nc2c(C(=O)N[C@@H]3CC[C@H]3OC)cnn12` [I-1333] registered a Kd in assay [1] of 1 to 10 nM. This compound displayed an IC50 in assay [2] below 100 nM.
`CNc1cc(Nc2cccn3cnnc23)nc2c(C(=O)N[C@H]3CC[C@@H]3OC)cnn12` [I-1343] showed an IC50 in assay [2] below 100 nM.
A word on the inhibition: it is the share of the control response that was lost under treatment. For `CNc1cc(Nc2cccn([C@H]3CCC[C@H](OC)C3)c2=O)nc2c(C(=O)NCC3(CO)CC3)cnn12` [I-1010], the Kd in assay [1] is below 0.2 nM. Further, the IC50 in assay [3] is above 50000 nM. The inhibition at 10 µM on Tyk2 kinase domain (DH1) and on JAK2 kinase domain (JH1) was below 50% each time.
On to `CNc1cc(Nc2cccn([C@H]3CCC[C@H]3O)c2=O)nc2c(C(=O)N[C@@H]3C[C@@H]3F)cnn12` [I-965], for which the dissociation constant (Kd) in assay [1] is below 0.2 nM. Also, in assay [3], the concentration for half-maximal inhibition (IC50) is above 50000 nM. The inhibition at 10 µM on Tyk2 kinase domain (DH1) and on JAK2 kinase domain (JH1) was below 50% throughout.
With `CNc1cc(-c2cn(C3CCOCC3)c3ncccc23)nc2c(C(=O)NC3CCC3O)cnn12` (stereo not shown) [I-1048, N-(2-hydroxycyclobutyl)-7-(methylamino)-5-(1-(tetrahydro-2H-pyran-4-yl)-1H-pyrrolo[2,3-b]pyridin-3-yl)pyrazolo[1,5-a]pyrimidine-3-carboxamide], the dissociation constant Kd in assay [1] is below 0.2 nM. Further, the IC50 in assay [3] was above 2500 nM. Also, the inhibition at 10 µM at Tyk2 kinase domain (DH1) and on JAK2 kinase domain (JH1) was below 50% in each case.
Turning to `CNc1cc(Nc2cccn(-c3ccccc3F)c2=O)nc2c(C(=O)N[C@H]3CC[C@H]3O)cnn12` [I-1035], in assay [1], the dissociation constant Kd is below 0.2 nM. Further, the half-inhibitory concentration (IC50) in assay [3] is above 2500 nM. The inhibition at 10 µM at Tyk2 kinase domain (DH1) and on JAK2 kinase domain (JH1) was below 50% each time.
`CNc1cc(Nc2cccn([C@H]3CC[C@@H]3O)c2=O)nc2c(C(=O)N[C@H]3CC[C@@H]3OC)cnn12` [I-1094]: the Kd in assay [1] is below 0.2 nM. Moreover, the IC50 in assay [3] is above 50000 nM. The inhibition at 10 µM at Tyk2 kinase domain (DH1) and at JAK2 kinase domain (JH1) was below 50% each time.
As to `CNc1cc(Nc2cccn([C@@H]3CCC[C@@H](O)C3)c2=O)nc2c(C(=O)N[C@@H]3C[C@@H]3F)cnn12` [I-1029], the Kd in assay [1] was below 0.2 nM. Also, in assay [3], the IC50 is above 2500 nM. Also, the inhibition at 10 µM on Tyk2 kinase domain (DH1) and on JAK2 kinase domain (JH1) was below 50% throughout.
In assay [1], `CNc1cc(Nc2cccn([C@H]3CCC[C@H]3O)c2=O)nc2c(C(=O)N[C@H]3CC[C@@H]3OC)cnn12` [I-1101] yielded a Kd below 0.2 nM. Moreover, the IC50 in assay [3] is above 50000 nM. The inhibition at 10 µM at Tyk2 kinase domain (DH1) and at JAK2 kinase domain (JH1) was below 50% each time.
As for `CNc1cc(Nc2cccn([C@@H]3CCC[C@H](OC)C3)c2=O)nc2c(C(=O)N[C@@H]3CC[C@H]3OC)cnn12` [I-1082], in assay [1], the dissociation constant Kd is below 0.2 nM. Moreover, in assay [3], the IC50 was above 50000 nM. In addition, the inhibition at 10 µM at Tyk2 kinase domain (DH1) and on JAK2 kinase domain (JH1) was below 50% each time.
`CNc1cc(Nc2cccn([C@H]3CCC[C@H]3O)c2=O)nc2c(C(=O)NC3CC3)cnn12` [I-963] displayed a Kd in assay [1] below 0.2 nM. Moreover, the half-maximal inhibitory concentration (IC50) in assay [3] was above 50000 nM. Further, the inhibition at 10 µM on Tyk2 kinase domain (DH1) and on JAK2 kinase domain (JH1) was below 50% in each case.
In the case of `CNc1cc(Nc2cccn([C@H]3CCCC[C@H]3O)c2=O)nc2c(C(=O)NC3CC3)cnn12` [I-878], in assay [1], the Kd is below 0.2 nM. The half-inhibitory concentration (IC50) in assay [3] is above 50000 nM. Moreover, the inhibition at 10 µM at Tyk2 kinase domain (DH1) and at JAK2 kinase domain (JH1) was below 50% each time.
In assay [1], `CNc1cc(Nc2cccn([C@@H]3CC[C@H]3O)c2=O)nc2c(C(=O)N[C@H]3CC[C@@H]3OC)cnn12` [I-1093] registered a dissociation constant (Kd) below 0.2 nM. Besides, the IC50 in assay [3] was above 50000 nM. For the same compound, the inhibition at 10 µM on Tyk2 kinase domain (DH1) and at JAK2 kinase domain (JH1) was below 50% in each case.
`CNc1cc(Nc2cc(Cl)cn(-c3cnn(C)c3F)c2=O)nc2c(C(=O)NC3CC3)cnn12` [I-955] displayed a Kd in assay [1] below 0.2 nM. Also, the IC50 in assay [3] was above 12500 nM. Moreover, the inhibition at 10 µM at Tyk2 kinase domain (DH1) and at JAK2 kinase domain (JH1) was below 50% in each case.
In assay [1], `CNc1cc(Nc2cccn3ccnc23)nc2c(C(=O)N[C@H]3CC[C@@H]3OC)cnn12` [I-1052] registered an equilibrium dissociation constant (Kd) below 0.2 nM. In assay [3], the IC50 is above 50000 nM. Moreover, the inhibition at 10 µM on Tyk2 kinase domain (DH1) and on JAK2 kinase domain (JH1) was below 50% each time.
In turn, `CNc1cc(Nc2cccc3ocnc23)nc2c(C(=O)NC3CC[C@@H]3OC)cnn12` (stereo partly shown) [I-1051, 5-(benzo[d]oxazol-4-ylamino)-N-(2-methoxycyclobutyl)-7-(methylamino) pyrazolo[1,5-a]pyrimidine-3-carboxamide] displayed a Kd in assay [1] below 0.2 nM. The IC50 in assay [3] was above 50000 nM. The inhibition at 10 µM on Tyk2 kinase domain (DH1) and at JAK2 kinase domain (JH1) was below 50% throughout.
`CNc1cc(Nc2cccn([C@H]3CCCN(CCF)C3)c2=O)nc2c(C(=O)N[C@@H]3CC[C@H]3OC)cnn12` [I-1059] registered an equilibrium dissociation constant (Kd) in assay [1] below 0.2 nM. Further, in assay [3], the IC50 was above 50000 nM. In addition, the inhibition at 10 µM at Tyk2 kinase domain (DH1) and at JAK2 kinase domain (JH1) was below 50% throughout.

The values above are taken from US10508120B2, “TYK2 inhibitors and uses thereof” (Nimbus Lakshmi, Inc., priority 2017, dated 2019).
